According to patent US12617779B2, “Self degradation-type CDK9 inhibitor prodrug and liposome encapsulating same” (Sumitomo Pharma Co., Ltd., priority 2021, dated 2026):

Key:
[1] = Evaluation of conversion rate to active form in buffer solution (Experimental Example 1); type: physicochemical; settings: for Production rate of Alvocidib / Residual rate: 37° C., 25 umol/L in buffer solution
How it was run: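 Conversion to Alvocidib was followed by HPLC over 3 hours at 37° C, with test compounds at 25 umol/L in 50 mM citrate or phosphate buffers spanning pH 5.0–7.4.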

[2] = Pharmacokinetic test, intravenous solution and liposome formulations in mice (Experimental Example 6); type: in vivo; settings: female BALB/c mice
How it was run: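 Solution or liposome formulation (ammonium sulfate-loaded HSPC/cholesterol/PEG-lipid liposomes, outer buffer 10 mM tartrate/10% sucrose pH 4) given IV to 7-week-old female BALB/c mice. Jugular blood sampled without anesthesia up to 24 h (solution) or 72 h (liposome); test compound and Alvocidib in plasma measured by LC-MS/MS.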

SMILES: CN1CC[C@H](c2c(OC(=O)N(C)C[C@@H]3CCCCN3)cc(O)c3c(=O)cc(-c4ccccc4Cl)oc23)[C@H](O)C1 [Example 3, 2-(2-chlorophenyl)-5-hydroxy-8-[(3S,4R)-3-hydroxy-1-methylpiperidin-4-yl]-4-oxo-4H-1-benzopyran-7-yl methyl{[(2S)-piperidin-2-yl]methyl}carbamate]
- Production rate of Alvocidib ([1]; pH5.0, 0 hr): 0.2%
- Residual rate ([1]; pH5.0, 0 hr): 99.8%
- Stability in buffer solution at pH 5 ([1]; pH 5, 37° C., up to 2 or 3 hours): stable
- Production rate of Alvocidib ([1]; pH5.0, 0.5 hr): 0.9%
- Residual rate ([1]; pH5.0, 0.5 hr): 99.1%
- Production rate of Alvocidib ([1]; pH5.0, 1 hr): 1.3%
- Residual rate ([1]; pH5.0, 1 hr): 98.7%
- Production rate of Alvocidib ([1]; pH5.0, 2 hr): 2.2%
- Residual rate ([1]; pH5.0, 2 hr): 97.8%
- Production rate of Alvocidib ([1]; pH5.0, 3 hr): 3.1%
- Residual rate ([1]; pH5.0, 3 hr): 96.9%
- Production rate of Alvocidib ([1]; pH5.5, 0 hr): 0.3%
- Residual rate ([1]; pH5.5, 0 hr): 99.7%
- Production rate of Alvocidib ([1]; pH5.5, 0.5 hr): 1.8%
- Residual rate ([1]; pH5.5, 0.5 hr): 98.2%
- Production rate of Alvocidib ([1]; pH5.5, 1 hr): 2.7%
- Residual rate ([1]; pH5.5, 1 hr): 97.3%
- Production rate of Alvocidib ([1]; pH5.5, 2 hr): 4.7%
- Residual rate ([1]; pH5.5, 2 hr): 95.3%
- Production rate of Alvocidib ([1]; pH5.5, 3 hr): 6.5%
- Residual rate ([1]; pH5.5, 3 hr): 93.5%
- Production rate of Alvocidib ([1]; pH6.0, 0 hr): 0.3%
- Residual rate ([1]; pH6.0, 0 hr): 99.7%
- Production rate of Alvocidib ([1]; pH6.0, 0.5 hr): 4.5%
- Residual rate ([1]; pH6.0, 0.5 hr): 95.5%
- Production rate of Alvocidib ([1]; pH6.0, 1 hr): 7.6%
- Residual rate ([1]; pH6.0, 1 hr): 92.2%
- Production rate of Alvocidib ([1]; pH6.0, 2 hr): 14.1%
- Residual rate ([1]; pH6.0, 2 hr): 85.3%
- Production rate of Alvocidib ([1]; pH6.0, 3 hr): 19.8%
- Residual rate ([1]; pH6.0, 3 hr): 79.4%
- Production rate of Alvocidib ([1]; pH6.5, 0 hr): 0.3%
- Residual rate ([1]; pH6.5, 0 hr): 99.7%
- Production rate of Alvocidib ([1]; pH6.5, 0.5 hr): 10.6%
- Residual rate ([1]; pH6.5, 0.5 hr): 88.9%
- Production rate of Alvocidib ([1]; pH6.5, 1 hr): 18.3%
- Residual rate ([1]; pH6.5, 1 hr): 80.9%
- Production rate of Alvocidib ([1]; pH6.5, 2 hr): 33.5%
- Residual rate ([1]; pH6.5, 2 hr): 65.3%
- Production rate of Alvocidib ([1]; pH6.5, 3 hr): 44.6%
- Residual rate ([1]; pH6.5, 3 hr): 53.9%
- Production rate of Alvocidib ([1]; pH7.0, 0 hr): 0.6%
- Residual rate ([1]; pH7.0, 0 hr): 99.4%
- Production rate of Alvocidib ([1]; pH7.0, 0.5 hr): 26.8%
- Residual rate ([1]; pH7.0, 0.5 hr): 72.2%
- Production rate of Alvocidib ([1]; pH7.0, 1 hr): 43.2%
- Residual rate ([1]; pH7.0, 1 hr): 55.3%
- Production rate of Alvocidib ([1]; pH7.0, 2 hr): 65.2%
- Residual rate ([1]; pH7.0, 2 hr): 20.2%
- Production rate of Alvocidib ([1]; pH7.0, 3 hr): 74.5%
- Residual rate ([1]; pH7.0, 3 hr): 8.0%
- Production rate of Alvocidib ([1]; pH7.4, 0 hr): 0.9%
- Residual rate ([1]; pH7.4, 0 hr): 99.1%
- Conversion to Alvocidib at pH 7.4 ([1]; pH 7.4, 37° C., up to 3 hours): rapidly converted to Alvocidib
- Production rate of Alvocidib ([1]; pH7.4, 0.5 hr): 49.0%
- Residual rate ([1]; pH7.4, 0.5 hr): 49.4%
- Production rate of Alvocidib ([1]; pH7.4, 1 hr): 67.8%
- Residual rate ([1]; pH7.4, 1 hr): 17.0%
- Production rate of Alvocidib ([1]; pH7.4, 2 hr): 80.4%
- Residual rate ([1]; pH7.4, 2 hr): 0.0%
- Production rate of Alvocidib ([1]; pH7.4, 3 hr): 82.5%
- Residual rate ([1]; pH7.4, 3 hr): 0.0%
- Blood retention of liposome formulation compared with the corresponding solution formulation [2]: higher blood retention
